Results as given in paper PMC12446476 (Nature Communications, 2025).
Converted amounts (≈) assume the structure as drawn.

How the values were obtained:
S. aureus = assay: MIC determination for S. aureus, broth dilution; assay type: cell-based; details: Staphylococcus aureus, ATCC29213; S. aureus ATCC 29213
N. gonorrhoeae = assay: In vitro time-kill assay; assay type: cell-based, Neisseria gonorrhoeae; details: for mean time to reach bactericidal activity: ten isolates
Excerpt: The 2024 WHO N. gonorrhoeae reference strains were used for quality control. Only whole MIC doubling dilutions are reported. Clinical breakpoints or the epidemiological cutoff (ECOFF, to indicate azithromycin resistance) from EUCAST (v14.0, https://www.eucast.org/clinical_breakpoints) were used to classify isolates as antimicrobial susceptible or resistant. […] Two times the standard inoculum defined by CLSI was used to establish consistent growth in untreated control samples for some strains. In vitro time-kill assays were performed according to CLSI guidelines[65] using Columbia Broth (BD Difco) supplemented with 1% IsoVitaleX Enrichment (BD). Viable bacterial counts were generated by plating 10-fold serially diluted samples on GC agar plates containing 1% IsoVitaleX Enrichment (BD).

Structure (SMILES): Cc1c(CN(C)C(=O)/C=C/c2cnc3c(c2)N[C@H](C)[C@H](O)C(=O)N3)oc2ccccc12 [Debio 1453]
- MIC (S. aureus): 8 ng/mL (≈ 0.019 µM)
- mean time to reach bactericidal activity (N. gonorrhoeae; 2× MIC): 10 h
- mean time to reach bactericidal activity (N. gonorrhoeae; 4× MIC): 8.5 h
- mean time to reach bactericidal activity (N. gonorrhoeae; 8× MIC): 8 h
- mean time to reach bactericidal activity (N. gonorrhoeae; 16× MIC): 8 h
- Log10CFU/ml (time kill) (N. gonorrhoeae; 6804, 2X MIC, 0 hr): 6.11 Log10CFU/ml
- Log10CFU/ml (time kill) (N. gonorrhoeae; 6804, 2X MIC, 1 hr): 6.05 Log10CFU/ml
- Log10CFU/ml (time kill) (N. gonorrhoeae; 6804, 2X MIC, 3 hr): 5.70 Log10CFU/ml
- Log10CFU/ml (time kill) (N. gonorrhoeae; 6804, 2X MIC, 6 hr): 5.13 Log10CFU/ml
- Log10CFU/ml (time kill) (N. gonorrhoeae; 6804, 2X MIC, 10 hr): 4.59 Log10CFU/ml
- Log10CFU/ml (time kill) (N. gonorrhoeae; 6804, 2X MIC, 24 hr): 1.95 Log10CFU/ml
- Log10CFU/ml (time kill) (N. gonorrhoeae; 6804, 4X MIC, 0 hr): 6.04 Log10CFU/ml
- Log10CFU/ml (time kill) (N. gonorrhoeae; 6804, 4X MIC, 1 hr): 6.04 Log10CFU/ml
- Log10CFU/ml (time kill) (N. gonorrhoeae; 6804, 4X MIC, 3 hr): 5.43 Log10CFU/ml
- Log10CFU/ml (time kill) (N. gonorrhoeae; 6804, 4X MIC, 6 hr): 4.53 Log10CFU/ml
- Log10CFU/ml (time kill) (N. gonorrhoeae; 6804, 4X MIC, 10 hr): 3.72 Log10CFU/ml
- Log10CFU/ml (time kill) (N. gonorrhoeae; 6804, 4X MIC, 24 hr): 1.95 Log10CFU/ml
- Log10CFU/ml (time kill) (N. gonorrhoeae; 6804, 8X MIC, 0 hr): 6.21 Log10CFU/ml
- Log10CFU/ml (time kill) (N. gonorrhoeae; 6804, 8X MIC, 1 hr): 6.03 Log10CFU/ml
- Log10CFU/ml (time kill) (N. gonorrhoeae; 6804, 8X MIC, 3 hr): 5.13 Log10CFU/ml
- Log10CFU/ml (time kill) (N. gonorrhoeae; 6804, 8X MIC, 6 hr): 4.30 Log10CFU/ml
- Log10CFU/ml (time kill) (N. gonorrhoeae; 6804, 8X MIC, 10 hr): 3.41 Log10CFU/ml
- Log10CFU/ml (time kill) (N. gonorrhoeae; 6804, 8X MIC, 24 hr): 1.95 Log10CFU/ml
- Log10CFU/ml (time kill) (N. gonorrhoeae; 6804, 16X MIC, 0 hr): 6.00 Log10CFU/ml
- Log10CFU/ml (time kill) (N. gonorrhoeae; 6804, 16X MIC, 1 hr): 6.07 Log10CFU/ml
- Log10CFU/ml (time kill) (N. gonorrhoeae; 6804, 16X MIC, 3 hr): 5.20 Log10CFU/ml
- Log10CFU/ml (time kill) (N. gonorrhoeae; 6804, 16X MIC, 6 hr): 4.67 Log10CFU/ml
- Log10CFU/ml (time kill) (N. gonorrhoeae; 6804, 16X MIC, 10 hr): 3.70 Log10CFU/ml
- Log10CFU/ml (time kill) (N. gonorrhoeae; 6804, 16X MIC, 24 hr): 1.95 Log10CFU/ml
- Log10CFU/ml (time kill) (N. gonorrhoeae; AR Bank0175, 2X MIC, 0 hr): 6.11 Log10CFU/ml
- Log10CFU/ml (time kill) (N. gonorrhoeae; AR Bank0175, 2X MIC, 1 hr): 5.92 Log10CFU/ml
- Log10CFU/ml (time kill) (N. gonorrhoeae; AR Bank0175, 2X MIC, 3 hr): 5.61 Log10CFU/ml
- Log10CFU/ml (time kill) (N. gonorrhoeae; AR Bank0175, 2X MIC, 6 hr): 4.46 Log10CFU/ml
- Log10CFU/ml (time kill) (N. gonorrhoeae; AR Bank0175, 2X MIC, 10 hr): 3.38 Log10CFU/ml
- Log10CFU/ml (time kill) (N. gonorrhoeae; AR Bank0175, 2X MIC, 24 hr): 1.95 Log10CFU/ml
- Log10CFU/ml (time kill) (N. gonorrhoeae; AR Bank0175, 4X MIC, 0 hr): 6.15 Log10CFU/ml
- Log10CFU/ml (time kill) (N. gonorrhoeae; AR Bank0175, 4X MIC, 1 hr): 5.59 Log10CFU/ml
- Log10CFU/ml (time kill) (N. gonorrhoeae; AR Bank0175, 4X MIC, 3 hr): 5.22 Log10CFU/ml
- Log10CFU/ml (time kill) (N. gonorrhoeae; AR Bank0175, 4X MIC, 6 hr): 4.45 Log10CFU/ml
- Log10CFU/ml (time kill) (N. gonorrhoeae; AR Bank0175, 4X MIC, 10 hr): 3.28 Log10CFU/ml
- Log10CFU/ml (time kill) (N. gonorrhoeae; AR Bank0175, 4X MIC, 24 hr): 1.95 Log10CFU/ml
- Log10CFU/ml (time kill) (N. gonorrhoeae; AR Bank0175, 8X MIC, 0 hr): 5.85 Log10CFU/ml
- Log10CFU/ml (time kill) (N. gonorrhoeae; AR Bank0175, 8X MIC, 1 hr): 5.40 Log10CFU/ml
- Log10CFU/ml (time kill) (N. gonorrhoeae; AR Bank0175, 8X MIC, 3 hr): 5.08 Log10CFU/ml
- Log10CFU/ml (time kill) (N. gonorrhoeae; AR Bank0175, 8X MIC, 6 hr): 3.85 Log10CFU/ml
- Log10CFU/ml (time kill) (N. gonorrhoeae; AR Bank0175, 8X MIC, 10 hr): 2.95 Log10CFU/ml
- Log10CFU/ml (time kill) (N. gonorrhoeae; AR Bank0175, 8X MIC, 24 hr): 1.95 Log10CFU/ml
- Log10CFU/ml (time kill) (N. gonorrhoeae; AR Bank0175, 16X MIC, 0 hr): 6.08 Log10CFU/ml
- Log10CFU/ml (time kill) (N. gonorrhoeae; AR Bank0175, 16X MIC, 1 hr): 5.41 Log10CFU/ml
- Log10CFU/ml (time kill) (N. gonorrhoeae; AR Bank0175, 16X MIC, 3 hr): 4.92 Log10CFU/ml
- Log10CFU/ml (time kill) (N. gonorrhoeae; AR Bank0175, 16X MIC, 6 hr): 3.81 Log10CFU/ml
- Log10CFU/ml (time kill) (N. gonorrhoeae; AR Bank0175, 16X MIC, 10 hr): 3.23 Log10CFU/ml
- Log10CFU/ml (time kill) (N. gonorrhoeae; AR Bank0175, 16X MIC, 24 hr): 1.95 Log10CFU/ml
